Test system: Cannabis plant
Assay: Leaf ploidy by flow cytometry after colchicine treatment of haploid Cannabis plants
Assay type: in vivo
Conditions: for cells counted diploid / cells counted haploid / cells counted tetraploid: mixaploid (n+2n) state
Source text: In some exemplary embodiments, a colchicine concentration (in water) of 0.25% may be used in addition to 0.5%, 1% and 5%. An issue arises with Cannabis in that not all the cells or tissues of a colchicine treated plant will double their ploidy.
On the multi-cellular level, doubling the ploidy of plants requires colchicine treatment applied to the shoot apical meristem (SAM). The SAM is composed of three distinct cell layers: L1 (outermost layer), L2 (middle layer), and L3 (innermost layer). Within the SAM, stem cell division takes place along the peripheral zone where new leaves emerge (Heidstra, 2014). The L1 gives rise to the epidermis or the protective covering of the leaf and stem, L2 to the sub epidermal photosynthetic mesophyll tissue, and L3 to the vascular tissue including the xylem and phloem. L1 and L2 divide anticlinally or […] to each other and thus remain distinct layers (Meyerowitz, 1997). On occasion, a cell in the SAM can divide periclinally whereby the daughter cell invades and acquires the identity one layer out and brings its ploidy with it. This organizational dynamic creates a stable yet mutable developmental path. In fact, the discovery of the stability of different layers within a meristem was discovered by creating a chimera using colchicine on Datura. The researchers were able to follow the developmental lineage of the differently sized cells due to the different ploidy levels within the SAM (Satina, 1940).

[1] = cultivar Cryptic Lineage Legacy, FIG. 4C
[2] = cultivar Herbaceous Sting, FIG. 2C
[3] = cultivar Operation Green Harvest Haze, FIG. 3C
[4] = cultivar Standing Liberty, FIG. 1C

`COc1cc2c(c(OC)c1OC)-c1ccc(OC)c(=O)cc1[C@@H](NC(C)=O)CC2` [Colchicine] was tested, and the “ploidy doubling of treated haploid plants” value (colchicine treated haploid Cannabis plants) was “very rarely, if ever, achieve a fully diploid state”, the cells counted diploid [1] was “approximately 20.65%” and the cells counted haploid [1] was “approximately 17.65%”. The cells counted tetraploid [1] was “approximately 2.63%”, the cells counted diploid [2] was “approximately 45.82%” and the cells counted haploid [2] was “approximately 12.15%”. The cells counted tetraploid [2] was “approximately 3.93%”, the cells counted diploid [3] was “approximately 22.8%” and the cells counted haploid [3] was “approximately 32.4%”. For the same compound, the cells counted tetraploid [3] was “approximately 3.1%”, the cells counted diploid [4] was “approximately 49%” and the cells counted haploid [4] was “approximately 12.48%”. For the same compound, the cells counted tetraploid [4] was “approximately 4.39%”.
